Assay results published in patent publication US9364492B2, “Method for glycosylation of flavonoid compounds” (SUNTORY HOLDINGS LIMITED, priority 2007, dated 2016).

How the values were obtained:
TRa2 [1] = assay: Glycosidase activity of TRa2 on sugars, TLC; assay type: biochemical, Trichoderma viride; settings: 0.5% sugar, 20 mM acetate buffer pH 5.0, 50° C., 1 hour
Method: The culture supernatant (500 μl) was concentrated about 5-fold using Microcon YM-30 (Amicon). The above concentrate (10 μl) was added to 100 μl of 20 mM acetate buffer (pH 5.0) containing 0.5% maltose, maltotriose, maltotetraose, dextrin, α-cyclodextrin, β-cyclodextrin or γ-cyclodextrin, and reacted at 50° C. for 1 hour.
After completion of the reaction, each sample was analyzed by TLC as follows. The plate used was a silica gel G-60 plate (Merck & Co., Inc.), and the developing solution used was 2-propanol:acetone:0.5 M lactic acid=2:2:1. For detection, the plate was sprayed with sulfuric acid:ethanol=1:9, air-dried and then heated on a hot plate. As a result, none of the sugars was degraded in a culture solution of the control strain (strain C-1) transformed with vector pYE22m.

[2] = Heat stability of glycoside; assay type: physicochemical; settings: 100 μM in 10 mM potassium phosphate buffer pH 7.0, 4° C. to 100° C., 0 to 4 hours
Method: After 10 mM potassium phosphate buffer (pH 7.0, 30 μl) containing 100 μM (+)-catechin or 4′-O-α-D-glucopyranosyl-(+)—catechin obtained in Example 4 was treated at different temperatures ranging from 4° C. to 100° C. for 0 to 4 hours, each sample was transferred on ice and mixed with 0.1% TFA (60 μl), followed by HPLC analysis in the same manner as shown in Example 1.

[3] = Solubility of glycoside in water; assay type: physicochemical
Method: (+)-Catechin or 5-O-α-D-glucopyranosyl-(+)-catechin obtained in Example 3 was added to water at different concentrations ranging from 10 to 450 mg/ml and dissolved by vigorous stirring, followed by centrifugation to remove precipitates. The supernatant was analyzed by HPLC to quantify the amounts of (+)-catechin and 5-O-α-D-glucopyranosyl-(+)-catechin. The same procedure was also repeated to study the solubility of (−)-epigallocatechin-3-β-gallate or 5-O-α-D-glucopyranosyl-(−)-epigallocatechin-3-O-gallate.

TRa2 [4] = assay: Substrate specificity: glycosylation of acceptor compounds with dextrin by crude TRa2 enzyme solution, HPLC; assay type: biochemical, Trichoderma viride; settings: 0.5 mM or 10 mM glycosyl acceptor compound, 10 mg dextrin, pH 5.2, 45° C., 24 hr
Method: The strain TRa2-1 was cultured overnight at 30° C. with shaking in 10 ml YPD medium. After reaching the resting phase, the culture solution was inoculated into the same medium (2% (v/v)) and cultured with shaking at 30° C. for 3 days. After culturing, the supernatant was collected by centrifugation and concentrated 5-fold to give a crude enzyme solution of TRa2. The reaction was performed at 45° C. for 24 hr in 100 μl enzyme reaction solution containing 0.5 mM or 10 mM glycosyl acceptor compound ((+)-catechin, (−)-epigallocatechin-3-O-gallate, esculetin, naringenin, quercetin, daidzein, genistein or kaempferol), 10 mg dextrin, 100 mM acetate buffer (pH 5.2) and the crude enzyme solution, followed by HPLC analysis.

Cellulase “Onozuka” RS [5] = assay: Glycosyl donor selectivity 2: (+)-catechin, Cellulase “Onozuka” RS and each glycosyl donor, HPLC; assay type: biochemical, Trichoderma viride; settings: substance as glycosyl donor (10 mg); (+)-catechin 3 mg; 50° C., 1 day, pH 5
Method: (+)-Catechin (3 mg) was mixed with Cellulase “Onozuka” RS (10 mg), each glycosyl donor (10 mg) and 0.1 M acetate buffer (100 μl, pH 5), followed by stirring at 50° C. for 1 day. The glycosyl donors used were maltose, maltotriose, maltotetraose, maltopentaose, maltohexaose, maltoheptaose and dextrin (Nacalai Tesque, Inc., Japan), as well as γ-cyclodextrin (Wako Pure Chemical Industries, Ltd., Japan). After the reaction, the centrifuged supernatant was diluted 10-fold and analyzed by HPLC.

Cellulase “Onozuka” RS [6] = assay: Glycosyl donor selectivity 1: (+)-catechin, Cellulase “Onozuka” RS and each glycosyl donor, HPLC; assay type: biochemical, Trichoderma viride; settings: substance as glycosyl donor (20 mg); (+)-catechin 6 mg; 50° C., 1 day, pH 5
Method: (+)-Catechin (6 mg) was mixed with Cellulase “Onozuka” RS (20 mg), each glycosyl donor (20 mg) and 0.1 M acetate buffer (200 μl, pH 5), followed by stirring at 50° C. for 1 day. After the reaction, the centrifuged supernatant was diluted 10-fold and analyzed by HPLC. The glycosyl donors used were cellobiose (Sigma), dextran (Sigma), maltose (Nacalai Tesque, Inc., Japan), carboxymethylcellulose sodium (Nacalai Tesque, Inc., Japan), soluble starch (Nacalai Tesque, Inc., Japan), dextrin (Nacalai Tesque, Inc., Japan), isomaltooligosaccharide (Wako Pure Chemical Industries, Ltd., Japan), α-cyclodextrin (Wako Pure Chemical Industries, Ltd., Japan), γ-cyclodextrin (Wako Pure Chemical Industries, Ltd., Japan) and trehalose dihydrate (Nacalai Tesque, Inc., Japan).

Molecule | degradation of sugar in culture solution of strain TRa2-1 (TRa2 [1]) | area ratio (%) between acceptor compound and glycoside product (TRa2 [4]) [%] | Product (% area) 5-Glc (Cellulase “Onozuka” RS [5]) [% area] | Product (% area) 7-Glc (Cellulase “Onozuka” RS [5]) [% area] | further results
OC[C@H]1O[C@H](O[C@H]2[C@H](O)[C@@H](O)C(O)O[C@@H]2CO)[C@H](O)[C@@H](O)[C@@H]1O (mixture of isomers) [Maltose, maltose] | no degradation |  |  |  | 
OC[C@H]1O[C@H](Oc2ccc([C@H]3Oc4cc(O)cc(O)c4C[C@@H]3O)cc2O)[C@H](O)[C@@H](O)[C@@H]1O [4′-O-α-D-glucopyranosyl-(+)-catechin] |  |  |  |  | heat stability (% remaining) [2]: more stable against heat than catechin
OC[C@H]1O[C@H](Oc2cc(O)cc3c2C[C@H](O)[C@@H](c2ccc(O)c(O)c2)O3)[C@H](O)[C@@H](O)[C@@H]1O [5-O-α-D-glucopyranosyl-(+)-catechin] |  |  |  |  | solubility relative to (+)-catechin [3]: at least 40 fold
O=C(O[C@@H]1Cc2c(O[C@H]3O[C@H](CO)[C@@H](O)[C@H](O)[C@H]3O)cc(O)cc2O[C@@H]1c1cc(O)c(O)c(O)c1)c1cc(O)c(O)c(O)c1 [5-O-α-D-glucopyranosyl-(−)-epigallocatechin-3-O-gallate] |  |  |  |  | solubility compared to (−)-epigallocatechin-3-O-gallate ([3]; water): significantly increased solubility
Oc1cc(O)c2c(c1)O[C@H](c1ccc(O)c(O)c1)[C@@H](O)C2 [(+)-catechin] |  | 10 |  |  | water solubility [3]: substantially insoluble in water
OC[C@H]1O[C@H](O[C@H]2[C@H](O)[C@@H](O)[C@@H](O[C@H]3[C@H](O)[C@@H](O)[C@@H](O[C@H]4[C@H](O)[C@@H](O)C(O)O[C@@H]4CO)O[C@@H]3CO)O[C@@H]2CO)[C@H](O)[C@@H](O)[C@@H]1O (some centres unmarked) [Maltotetraose, maltotetraose] | degraded |  | 7.15 | 1.60 | 
O=c1c(-c2ccc(O)cc2)coc2cc(O)ccc12 [daidzein] |  | 10.7 |  |  | 
O=c1ccc2cc(O)c(O)cc2o1 [esculetin] |  | 3.5 |  |  | 
O=c1c(-c2ccc(O)cc2)coc2cc(O)cc(O)c12 [genistein] |  | 6.8 |  |  | 
O=c1c(O)c(-c2ccc(O)cc2)oc2cc(O)cc(O)c12 [kaempferol] |  | 3.1 |  |  | 
O=C1C[C@@H](c2ccc(O)cc2)Oc2cc(O)cc(O)c21 [naringenin] |  | 4.4 |  |  | 
O=c1c(O)c(-c2ccc(O)c(O)c2)oc2cc(O)cc(O)c12 [quercetin] |  | 9.4 |  |  | 
OC[C@H]1O[C@@H]2O[C@H]3[C@H](O)[C@@H](O)[C@@H](O[C@H]4[C@H](O)[C@@H](O)[C@@H](O[C@H]5[C@H](O)[C@@H](O)[C@@H](O[C@H]6[C@H](O)[C@@H](O)[C@@H](O[C@H]7[C@H](O)[C@@H](O)[C@@H](O[C@H]1[C@H](O)[C@H]2O)O[C@@H]7CO)O[C@@H]6CO)O[C@@H]5CO)O[C@@H]4CO)O[C@@H]3CO [α-Cyclodextrin, α-cyclodextrin] | no degradation |  |  |  | 
OC[C@H]1O[C@@H]2O[C@H]3[C@H](O)[C@@H](O)[C@@H](O[C@H]4[C@H](O)[C@@H](O)[C@@H](O[C@H]5[C@H](O)[C@@H](O)[C@@H](O[C@H]6[C@H](O)[C@@H](O)[C@@H](O[C@H]7[C@H](O)[C@@H](O)[C@@H](O[C@H]8[C@H](O)[C@@H](O)[C@@H](O[C@H]1[C@H](O)[C@H]2O)O[C@@H]8CO)O[C@@H]7CO)O[C@@H]6CO)O[C@@H]5CO)O[C@@H]4CO)O[C@@H]3CO [β-cyclodextrin] | no degradation |  |  |  | 
OC[C@H]1O[C@@H]2O[C@H]3[C@H](O)[C@@H](O)[C@@H](O[C@H]4[C@H](O)[C@@H](O)[C@@H](O[C@H]5[C@H](O)[C@@H](O)[C@@H](O[C@H]6[C@H](O)[C@@H](O)[C@@H](O[C@H]7[C@H](O)[C@@H](O)[C@@H](O[C@H]8[C@H](O)[C@@H](O)[C@@H](O[C@H]9[C@H](O)[C@@H](O)[C@@H](O[C@H]1[C@H](O)[C@H]2O)O[C@@H]9CO)O[C@@H]8CO)O[C@@H]7CO)O[C@@H]6CO)O[C@@H]5CO)O[C@@H]4CO)O[C@@H]3CO [γ-Cyclodextrin, γ-cyclodextrin] | degraded |  | 14.53 | 4.73 | Product (% area) 5-Glc (Cellulase “Onozuka” RS [6]): 14.69 % area; Product (% area) 7-Glc (Cellulase “Onozuka” RS [6]): 5.91 % area
(−)-epigallocatechin-3-O-gallate |  | 17.7 |  |  | 
maltoheptaose |  |  | 7.39 | 1.97 | 
maltohexaose |  |  | 7.89 | 2.06 | 
maltopentaose |  |  | 7.87 | 1.98 | 
maltotriose | degraded |  | 2.54 | 0.51 | 
